Source: patent US11213509B2, “Compositions and methods for treating traumatic brain injury” (Ischemix, LLC, priority 2017, dated 2022)

Key:
Type in all cases: in vivo
[1] = test system: rat model of focal TBI; experiment: Beam balance test, rat model of focal TBI (BCCI)
Excerpt: BCCI TBI to the medial frontal cortex (MFC) was induced by a cortical contusion device (Custom Design & Fabrication, Inc [CDF], Richmond, Va.). This device creates a reliable contusion injury to the exposed area of the brain with a brass-tipped impounder. (Hoffman et al., 1994). Rats were anesthetized with isoflurane (5%) (Novaplus™), and 02 (300 cm^3/min), and mounted in a stereotaxic frame. Under aseptic conditions, a sagittal incision was made in the scalp and the fascia retracted to expose the cranium. Then, a 6-mm diameter trephine drill was used to open the skull immediately anterior to the bregma. TBI of the MFC was made with a 5-mm-diameter rounded brass impactor attached to a computer-controlled piston propelled electronically with following parameters: velocity=2.5 m/s; depth=3 mm; duration=100 ms). After BCCI, any cortical surface hemorrhaging was controlled and the fascia and scalp sutured. […]
The beam balance test examined vestibulomotor reflex activity of the animals after injury. […] The animal was gently placed on a suspended narrow beam 1.5 cm wide with a rough surface and the duration for which it remained on the beam was measured with a maximum cutoff time of 60 sec. […]
(§1) Data are presented as mean±SEM and analyzed by one-way repeated measures Analysis of variance (ANOVA) in order to test the effects of treatment on beam balance times and Morris water maze performance. […]

[2] = Body weight and post-operative observations, rat model of focal TBI (BCCI)
Excerpt: Adult, male, Spague-Dawley rats from Charles River were used. Animals were received at PsychoGenics and assigned unique identification numbers (tails marked). Animals were housed 2 per cage in polycarbonate rat cages equipped with microisolators and acclimated for up to 7 days. All rats were examined, handled, and weighed prior to initiation of the study to assure adequate health and suitability. During the course of the study, 12/12 light/dark cycles were maintained. The room temperature was maintained between 20 and 23° C. with a relative humidity maintained around 50%. Chow and water were provided ad libitum for the duration of the study. Animals were randomly assigned across treatment groups.
BCCI TBI to the medial frontal cortex (MFC) was induced by a cortical contusion device (Custom Design & Fabrication, Inc [CDF], Richmond, Va.). This device creates a reliable contusion injury to the exposed area of the brain with a brass-tipped impounder. (Hoffman et al., 1994). Rats were anesthetized with isoflurane (5%) (Novaplus™), and 02 (300 cm^3/min), and mounted in a stereotaxic frame. […]
as §1

[3] = test system: rat model of focal TBI; experiment: Morris water maze, rat model of focal TBI (BCCI); conditions: for Improvement in escape latency relative to Day 1 / Morris water maze escape latency: 30 mg/kg; for Morris water maze escape latency: vs saline
Excerpt: BCCI TBI to the medial frontal cortex (MFC) was induced by a cortical contusion device (Custom Design & Fabrication, Inc [CDF], Richmond, Va.). This device creates a reliable contusion injury to the exposed area of the brain with a brass-tipped impounder. (Hoffman et al., 1994). Rats were anesthetized with isoflurane (5%) (Novaplus™), and 02 (300 cm^3/min), and mounted in a stereotaxic frame. Under aseptic conditions, a sagittal incision was made in the scalp and the fascia retracted to expose the cranium. Then, a 6-mm diameter trephine drill was used to open the skull immediately anterior to the bregma. TBI of the MFC was made with a 5-mm-diameter rounded brass impactor attached to a computer-controlled piston propelled electronically with following parameters: velocity=2.5 m/s; depth=3 mm; duration=100 ms). After BCCI, any cortical surface hemorrhaging was controlled and the fascia and scalp sutured. The animals were allowed to recover in a warmed recovery chamber and appropriate post-operative care was taken. Treatment was delivered 30 minutes after injury and at approximately 24 hrs after injury. Two weeks after injury, rats were tested in the Morris water maze (MWM). The MWM is a well-characterized test of spatial learning and memory in rodents. The objective of the MWM is to teach rats that there is an escape platform located somewhere in a large, water filled pool. The rats are naturally motivated to escape the pool. The rats use extra-maze visual cues to locate the position of a submerged platform over a series of trials. The MWM test was conducted beginning at day 14 after traumatic brain injury. Rats were acclimated to the test room at least 1 hour prior to testing. The MWM consists of a circular pool (160 cm diameter×50 cm height) containing water that was made opaque with non-toxic black paint in order to hide the escape platform (see FIG. 4A). The water temperature was kept at 25±1° C. The water surface was 15 cm from the rim of the pool, and the inner wall was always carefully wiped to eliminate any local cues. The pool was located in a large room with a number of extra-maze visual cues, including highly visible geometric images (squares, triangles, circles, etc.) hung on the wall, diffuse lighting, and curtains to hide the experimenter and the awaiting rats. Behavior was tracked by a video camera hanging above the pool. Video tracking software (ANY-maze) recorded and analyzed the behavior of the animal in the pool. After training, the rats were gently dried with clean paper towels and placed in a warmed holding cage for the rats to dry before being returned to their home cage. Training: During training, the rat was placed into the water facing the wall of the pool and allowed to search for the platform. If the rat found the platform within 60 seconds, the trial was stopped, and the rat was allowed to stay on the platform for 30 seconds before being moved. If the platform was not found within 60 seconds, rats were placed on the platform for 30 sec in order to allow them time to learn the position of the platform in relation of the room's visual cues. Rats were given 4 trials a day for 4 days (days 14 to 17), with a 30 second interval between trials. The starting point was randomly rotated for every rat in each trial. Probe Trial: On the fifth day (day 18 after surgery), the rats received a probe trial. The probe test consisted of placing the animal in the pool for 60 seconds without the platform and monitoring the time spent in the four quadrants of the pool (see FIG. 4B). An animal that has learned the position of the platform will spend more time searching that target quadrant of the pool. During training, a submerged hidden target platform is placed in the pool and this region is defined as the target quadrant (see FIG. 4A). During the probe trial, the platform is removed and the duration of swimming in the different quadrants is tracked by the video camera and computer. […]

[4] = day 18 following surgery, 30 mg/kg vs saline

With CC(NC(=O)C(CCC(=O)O)NC(=O)CCCCC1CCSS1)C(=O)O [CMX-2043, N—(R)-lipoyl-glutamylalanine] the “Treatment efficacy in beam balance motor test” value ([1]; 30 mg/kg intravenously) was “not in the beam balance motor test”, the Beam balance time ([1]; Day 3 following injury, 30 mg/kg IV, all groups) was “less than 3 seconds” and the “Body weight / weight gain” value ([2]; 30 mg/kg IV at 30 minutes and about 24 hrs after injury, vs saline) was “no adverse effects on weight gain”. For the same compound, the “Survival (deaths within 24 hours post-injury)” value ([2]; 30 mg/kg IV, TBI-injured rats) was 9 surviving animals of the 11 animals treated, the “Improvement in escape latency relative to Day 1” value ([3]; Day 2 of training) was 4.9 s and the “Improvement in escape latency relative to Day 1” value ([3]; Day 3 of training) was 8.7 s. The “Improvement in escape latency relative to Day 1” value ([3]; Day 4 of training, significantly better than saline) was 24.2 s, the “Morris water maze escape latency” value ([3]; day 1 of training) was “longer latency times than saline treated animals” and the “Probe trial number of entries into the platform zone” value [3, 4] was “did not reveal a significant difference”. For the same compound, the “Probe trial time spent in the target quadrant” value [3, 4] was “did not show an overall difference”, the “Morris water maze escape latency” value ([3]; final training day) was “significantly faster escape latency” and the “Morris water maze escape latency” value ([3]; training days 2 and 3) was “no differences between groups”. The “Morris water maze swim distance” value ([3]; training, 30 mg/kg vs saline) was “no difference” and the “Morris water maze swim speed” value ([3]; training, 30 mg/kg vs saline) was “no difference”.
